Experimental data reported in US5459158A, “Pharmaceutical compositions of indazoles and methods of use thereof” (priority 1992, dated 1995).
Like-named read-outs stand apart in the source and are kept apart here. One block for each compound: values may come before it.

Columns and labels:
[1] = molecular target: T1, rat cerebellar nitric oxide synthase (NOS) (Rattus norvegicus, UniProt P29476); test: inhibition of rat cerebellar nitric oxide synthase (NOS); assay type: biochemical
T1 construct: from tissue
Experimental: Nitric oxide synthase (NOS) activity was determined in vitro by the method of Dwyer et al., Biochem. Biophys. Res. Commun. 1991, 176, 1136-1141. Mice (male, LACA, 28-32 g) were killed by cervical dislocation. Cerebella were removed, homogenized (1-10 w/v in 20 mM Tris buffer containing 2 mM EDTA, pH. 7.4) and aliquots (25 μl) incubated (37° C.) with L-arginine (120 nM) containing 0.5 μCi [^3 H]-arginine (specific activity 62 Ci mmol^-1), NADPH (0.5 mM) and CaCl2 (0.75 mM). […] Final incubation volume was 105 μl. After 15 minutes the reaction was stopped by addition of 3 ml HEPES buffer (20 mM containing 2 mM EDTA, pH 5.5) and the [^3 H]-citrulline produced was separated by cation exchange chromatography on 0.5 ml columns of Dowex AG50-W8 Na^+ form. [^3 H]-Citrulline was quantitated by liquid scintillation spectroscopy of duplicate 1 ml aliquots of the flow-through.

[2] = test system: mice; test: anti-nociceptive activity, formalin-induced hindpaw licking assay; assay type: in vivo, mouse; settings: for Inhibition of licking (%): 50 mg kg^-1 i.p., late phase
Experimental: Control animals received 10 ml kg^-1 of arachis oil or saline (0.9% w/v NaCl).
The percentage inhibition of formalin-induced licking in the late phase following the administration of 50 mg kg^-1 i.p. of the indazoles is shown in the Table below.

[3] = molecular target: T2, mouse cerebellar NOS (Mus musculus, UniProt Q9Z0J4); test: mouse cerebellar NOS activity after i.p. administration (ex vivo); assay type: in vivo; settings: n=6, P<0.01
T2 construct: Cerebella were removed, homogenized; from tissue; host or cells: cerebellum of male LACA mice, crude homogenate
T2 sequence (Q9Z0J4 whole entry): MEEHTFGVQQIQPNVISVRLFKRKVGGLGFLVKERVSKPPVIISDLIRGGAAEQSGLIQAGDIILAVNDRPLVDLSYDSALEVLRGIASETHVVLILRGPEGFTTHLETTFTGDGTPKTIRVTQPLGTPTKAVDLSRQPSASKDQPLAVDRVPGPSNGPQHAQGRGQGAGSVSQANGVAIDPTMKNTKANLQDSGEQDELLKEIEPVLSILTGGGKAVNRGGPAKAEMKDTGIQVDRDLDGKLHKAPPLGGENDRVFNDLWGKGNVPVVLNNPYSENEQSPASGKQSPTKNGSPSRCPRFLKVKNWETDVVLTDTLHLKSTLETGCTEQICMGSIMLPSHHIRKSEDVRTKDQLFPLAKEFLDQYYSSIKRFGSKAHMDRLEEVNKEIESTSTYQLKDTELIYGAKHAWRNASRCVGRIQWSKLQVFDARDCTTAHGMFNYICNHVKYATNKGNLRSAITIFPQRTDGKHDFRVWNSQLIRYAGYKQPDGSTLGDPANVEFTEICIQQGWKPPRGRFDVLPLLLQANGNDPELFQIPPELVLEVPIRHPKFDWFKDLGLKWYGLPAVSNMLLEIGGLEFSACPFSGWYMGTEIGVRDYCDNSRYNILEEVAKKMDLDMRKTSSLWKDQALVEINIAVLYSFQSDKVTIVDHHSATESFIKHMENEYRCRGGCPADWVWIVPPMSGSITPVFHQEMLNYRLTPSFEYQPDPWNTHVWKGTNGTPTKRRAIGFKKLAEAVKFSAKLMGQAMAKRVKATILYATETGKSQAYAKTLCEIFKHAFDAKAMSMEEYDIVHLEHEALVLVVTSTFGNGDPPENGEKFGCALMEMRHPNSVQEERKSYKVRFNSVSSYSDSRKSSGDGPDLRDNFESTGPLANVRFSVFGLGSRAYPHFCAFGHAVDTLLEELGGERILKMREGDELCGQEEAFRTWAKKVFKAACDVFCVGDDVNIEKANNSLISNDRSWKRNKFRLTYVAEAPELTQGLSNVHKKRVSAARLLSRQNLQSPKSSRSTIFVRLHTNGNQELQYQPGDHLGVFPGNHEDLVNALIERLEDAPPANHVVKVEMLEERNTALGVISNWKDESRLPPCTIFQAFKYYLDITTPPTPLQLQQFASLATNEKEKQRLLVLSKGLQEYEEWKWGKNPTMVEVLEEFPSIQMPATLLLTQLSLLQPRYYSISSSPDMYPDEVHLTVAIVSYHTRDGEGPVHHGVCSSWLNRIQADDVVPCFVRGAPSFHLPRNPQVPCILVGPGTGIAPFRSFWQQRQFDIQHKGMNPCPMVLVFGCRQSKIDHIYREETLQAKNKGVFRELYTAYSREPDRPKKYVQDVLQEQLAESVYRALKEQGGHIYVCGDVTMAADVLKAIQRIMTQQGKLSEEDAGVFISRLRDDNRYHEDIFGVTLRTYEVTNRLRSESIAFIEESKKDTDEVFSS
Experimental: Nitric oxide synthase (NOS) activity was determined in vitro by the method of Dwyer et al., Biochem. Biophys. Res. Commun. […] Mice (male, LACA, 28-32 g) were killed by cervical dislocation. […] Final incubation volume was 105 μl. After 15 minutes the reaction was stopped by addition of 3 ml HEPES buffer (20 mM containing 2 mM EDTA, pH 5.5) and the [^3 H]-citrulline produced was separated by cation exchange chromatography on 0.5 ml columns of Dowex AG50-W8 Na^+ form. [^3 H]-Citrulline was quantitated by liquid scintillation spectroscopy of duplicate 1 ml aliquots of the flow-through.
Cerebella were removed, homogenized and NOS activity determined as described above.

[4] = molecular target: T2, mouse cerebellar NOS; test: inhibition of mouse cerebellar nitric oxide synthase (NOS) activity in vitro; assay type: biochemical; settings: for IC50: mouse cerebella homogenate, 15 minutes, 37° C., mean ± s.e. mean, n=6
[5] = blood pressure (MAP) of urethane-anaesthetized mice; assay type: in vivo, mouse; settings: for mean arterial pressure (MAP): n=4
[6] = test system: nitric oxide synthase; settings: Moore et al., British Journal of Pharmacology, 1991, 102, 198-202; cited from earlier work
[7] = rat cerebella, read-out: IC50 NOS
[8] = ratio of IC50 on mouse cerebellar NOS in vitro

IC50 [1, 7]: 177 µM
Structure (SMILES): O=[N+]([O-])c1ccc2[nH]nc(Cl)c2c1 [3-chloro-5-nitroindazole]

IC50 [1, 7]: 100 µM
Structure (SMILES): Clc1n[nH]c2ccccc12 [3-chloroindazole]

IC50 [1, 7]: 56 µM
Structure (SMILES): O=[N+]([O-])c1ccc2[nH]ncc2c1 [5-nitroindazole]

IC50 [1, 7]: 32 µM
Structure (SMILES): O=[N+]([O-])c1ccc2cn[nH]c2c1 [6-nitroindazole]
Inhibition of licking (%) [2]: 67.0 ± 12.0%

Structure (SMILES): O=[N+]([O-])c1cccc2cn[nH]c12 [7-nitroindazole]
decrease of mouse cerebellar NOS activity ([3]; 25 mg kg^-1, i.p., 15 minutes thereafter): over 55%
mouse cerebellar NOS activity ([3]; 25 mg kg^-1, i.p., 15 minutes, cf 9.1±0.26 arachis oil-injected controls): 3.9±0.06 nmol citrulline mg^-1 protein 15 min^-1
IC50 [4]: 0.47 ± 0.01 µM
times more potent than L-NAME [4, 8]: 1.8 times
times more potent than L-NMMA [4, 8]: 5 times
mean arterial pressure (MAP) ([5]; 25 mg kg^-1 i.p., cf 51.6±4.4 before administration): 47.4±5.1 mmHg
mean arterial pressure (MAP) ([5]; 80 mg kg^-1 i.p., cf 49.5±2.9 before administration): 43.9±5.3 mmHg
mean arterial pressure (MAP), change in words ([5]; 25 and 80 mg kg^-1 i.p., over 45 minutes): did not increase mean arterial pressure
Inhibition of licking (%) [2]: 100%
early phase response of formalin-induced hindpaw licking (in words) ([2]; 10, 25 and 50 mg kg^-1 i.p., early phase (0-5 minutes)): without influencing the early phase response
inhibition of late phase formalin-induced hindpaw licking (in words) ([2]; 10, 25 and 50 mg kg^-1 i.p., late phase (15-30 minutes)): dose-related inhibition of late phase formalin-induced hindpaw licking
ED50 for the anti-nociceptive effect ([2]; i.p., mice): 26 mg/kg
ED50 for the anti-nociceptive effect (equivalent) ([2]; i.p., mice, converted from 26 mg kg^-1): 159.5 µmol/kg

Structure (SMILES): COC(=O)[C@@H](N)CCCNC(=N)N[N+](=O)[O-] [L-NAME, L-N^G -nitroarginine methyl ester, reference compound]
mouse cerebellar NOS activity ([3]; 50 mg kg^-1, i.p., 15 minutes, cf 8.33±0.15 saline-injected controls): 4.46±0.012 pmol citrulline mg^-1 protein 15 min^-1
inhibition at 50 mg/kg ([3]; mouse, ip, 50 mg kg^-1, i.p., 15 minutes): 46.2 ± 1.6%
block of nitric oxide synthase in brain and peripherally [6]: blocks this enzyme not only in the brain but also peripherally
IC50 [4]: 0.87 ± 0.02 µM

IC50 [4]: 2.37 ± 0.03 µM
Structure (SMILES): CNC(=N)NCCC[C@H](N)C(=O)O [L-NMMA, L-N^G -monomethyl arginine, reference compound]

Structure (SMILES): c1ccc2[nH]ncc2c1 [indazole]
IC50 [1]: 232 µM
Inhibition of licking (%) [2]: 83.2 ± 12.2%
